In ChEMBL document CHEMBL3351286, “Strategies to inhibit tumor associated integrin receptors: rationale for dual and multi-antagonists” (J Med Chem, 2014):
pIC50: −log10 of the molar value.

Assays:
Integrin alpha-V/beta-6 = Integrin alpha-V/beta-6 (Homo sapiens, UniProt P06756+P18564); assay: Antagonist activity at alphavbeta6 integrin receptor (unknown origin) by cell-free ELISA; format: protein-complex assay
Integrin alpha-5/beta-1 = Integrin alpha-5/beta-1 (Homo sapiens, UniProt P05556+P08648); assay: Antagonist activity at alpha5beta1 integrin receptor (unknown origin) by cell-free ELISA; format: protein-complex assay
Integrin alpha-V/beta-5 [1] = target: T1, Integrin alpha-V/beta-5 (Homo sapiens, UniProt P06756+P18084); assay: Antagonist activity at alphavbeta5 integrin receptor (unknown origin) by cell-free ELISA; format: protein-complex assay
T1 sequence (P06756 31-889 limits assumed): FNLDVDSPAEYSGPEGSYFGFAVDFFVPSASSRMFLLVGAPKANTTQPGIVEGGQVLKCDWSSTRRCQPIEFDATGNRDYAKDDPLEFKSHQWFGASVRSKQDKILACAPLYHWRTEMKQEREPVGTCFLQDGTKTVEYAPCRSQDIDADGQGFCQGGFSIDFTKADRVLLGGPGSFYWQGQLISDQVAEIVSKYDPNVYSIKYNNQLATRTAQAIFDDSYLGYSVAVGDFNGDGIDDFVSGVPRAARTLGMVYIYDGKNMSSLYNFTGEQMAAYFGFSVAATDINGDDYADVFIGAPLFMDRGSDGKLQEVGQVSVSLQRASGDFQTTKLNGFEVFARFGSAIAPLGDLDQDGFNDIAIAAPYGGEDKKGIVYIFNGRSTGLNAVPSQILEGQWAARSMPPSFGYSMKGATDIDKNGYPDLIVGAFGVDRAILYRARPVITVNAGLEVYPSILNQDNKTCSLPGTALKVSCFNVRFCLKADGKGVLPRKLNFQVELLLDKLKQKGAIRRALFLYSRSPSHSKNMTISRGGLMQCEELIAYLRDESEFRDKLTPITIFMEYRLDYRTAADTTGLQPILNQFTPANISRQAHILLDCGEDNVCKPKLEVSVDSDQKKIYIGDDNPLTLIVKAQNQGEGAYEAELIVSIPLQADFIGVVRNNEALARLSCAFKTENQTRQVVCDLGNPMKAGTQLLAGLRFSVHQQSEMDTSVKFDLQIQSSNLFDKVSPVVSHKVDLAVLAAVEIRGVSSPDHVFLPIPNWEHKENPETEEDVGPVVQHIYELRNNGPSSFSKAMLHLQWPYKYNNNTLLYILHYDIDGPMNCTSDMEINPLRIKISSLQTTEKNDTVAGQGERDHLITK
T1 sequence (P06756 891-1048 limits assumed): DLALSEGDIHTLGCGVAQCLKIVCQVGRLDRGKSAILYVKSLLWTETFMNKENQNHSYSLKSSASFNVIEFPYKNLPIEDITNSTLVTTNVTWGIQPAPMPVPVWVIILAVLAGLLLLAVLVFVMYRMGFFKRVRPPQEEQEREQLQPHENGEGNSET
T1 sequence (P18084 24-799 limits assumed): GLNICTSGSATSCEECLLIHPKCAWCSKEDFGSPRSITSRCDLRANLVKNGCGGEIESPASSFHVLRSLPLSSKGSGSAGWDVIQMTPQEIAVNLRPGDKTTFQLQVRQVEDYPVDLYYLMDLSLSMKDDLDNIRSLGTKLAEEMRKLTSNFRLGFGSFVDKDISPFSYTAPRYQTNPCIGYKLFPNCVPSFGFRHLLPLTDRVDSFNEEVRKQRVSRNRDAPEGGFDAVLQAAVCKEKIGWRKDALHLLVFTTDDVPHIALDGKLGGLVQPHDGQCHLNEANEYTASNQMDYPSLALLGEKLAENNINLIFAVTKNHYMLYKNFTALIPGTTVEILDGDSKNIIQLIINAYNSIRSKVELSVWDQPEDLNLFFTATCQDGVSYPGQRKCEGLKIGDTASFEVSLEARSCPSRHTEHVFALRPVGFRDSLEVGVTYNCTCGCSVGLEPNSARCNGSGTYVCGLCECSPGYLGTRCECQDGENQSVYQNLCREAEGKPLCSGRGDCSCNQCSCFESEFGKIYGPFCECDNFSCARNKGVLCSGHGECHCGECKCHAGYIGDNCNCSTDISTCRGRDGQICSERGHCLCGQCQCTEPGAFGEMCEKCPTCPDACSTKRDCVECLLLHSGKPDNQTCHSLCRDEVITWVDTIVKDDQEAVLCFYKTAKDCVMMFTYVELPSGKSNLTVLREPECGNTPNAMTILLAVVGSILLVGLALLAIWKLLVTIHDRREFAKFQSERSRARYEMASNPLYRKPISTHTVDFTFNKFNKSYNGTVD

Integrin alpha-4/beta-7 = target: T2, Integrin alpha-4/beta-7 (Homo sapiens, UniProt P13612+P26010); assay: Antagonist activity at alpha4beta7 integrin receptor (unknown origin) by cell-free ELISA; format: protein-complex assay
T2 sequence (P13612 whole entry): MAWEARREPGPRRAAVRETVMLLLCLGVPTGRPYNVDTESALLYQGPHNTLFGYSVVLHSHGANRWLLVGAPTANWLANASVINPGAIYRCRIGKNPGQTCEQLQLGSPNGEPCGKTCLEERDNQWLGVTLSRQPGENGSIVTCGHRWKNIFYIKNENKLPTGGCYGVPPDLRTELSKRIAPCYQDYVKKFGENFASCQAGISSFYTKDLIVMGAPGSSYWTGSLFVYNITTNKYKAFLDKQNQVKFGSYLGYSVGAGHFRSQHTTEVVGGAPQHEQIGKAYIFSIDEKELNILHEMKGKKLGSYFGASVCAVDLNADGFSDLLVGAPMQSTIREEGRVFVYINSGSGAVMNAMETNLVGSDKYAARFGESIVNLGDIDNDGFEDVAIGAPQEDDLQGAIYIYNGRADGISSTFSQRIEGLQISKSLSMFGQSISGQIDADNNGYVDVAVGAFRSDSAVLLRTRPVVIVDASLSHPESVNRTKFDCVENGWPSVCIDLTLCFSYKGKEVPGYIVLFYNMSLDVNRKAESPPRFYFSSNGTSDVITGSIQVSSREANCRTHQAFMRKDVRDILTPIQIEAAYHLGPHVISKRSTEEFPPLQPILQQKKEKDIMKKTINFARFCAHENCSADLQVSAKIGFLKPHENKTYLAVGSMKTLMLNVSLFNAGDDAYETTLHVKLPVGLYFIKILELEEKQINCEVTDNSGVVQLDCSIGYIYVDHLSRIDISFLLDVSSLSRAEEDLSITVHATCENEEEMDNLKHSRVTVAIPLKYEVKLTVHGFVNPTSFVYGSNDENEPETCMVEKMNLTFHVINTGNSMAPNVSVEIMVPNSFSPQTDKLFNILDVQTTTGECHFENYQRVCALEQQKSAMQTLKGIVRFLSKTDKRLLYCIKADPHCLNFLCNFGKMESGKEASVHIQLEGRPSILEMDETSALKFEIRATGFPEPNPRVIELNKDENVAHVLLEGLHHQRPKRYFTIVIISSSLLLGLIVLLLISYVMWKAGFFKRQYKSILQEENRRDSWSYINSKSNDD
T2 sequence (P26010 whole entry): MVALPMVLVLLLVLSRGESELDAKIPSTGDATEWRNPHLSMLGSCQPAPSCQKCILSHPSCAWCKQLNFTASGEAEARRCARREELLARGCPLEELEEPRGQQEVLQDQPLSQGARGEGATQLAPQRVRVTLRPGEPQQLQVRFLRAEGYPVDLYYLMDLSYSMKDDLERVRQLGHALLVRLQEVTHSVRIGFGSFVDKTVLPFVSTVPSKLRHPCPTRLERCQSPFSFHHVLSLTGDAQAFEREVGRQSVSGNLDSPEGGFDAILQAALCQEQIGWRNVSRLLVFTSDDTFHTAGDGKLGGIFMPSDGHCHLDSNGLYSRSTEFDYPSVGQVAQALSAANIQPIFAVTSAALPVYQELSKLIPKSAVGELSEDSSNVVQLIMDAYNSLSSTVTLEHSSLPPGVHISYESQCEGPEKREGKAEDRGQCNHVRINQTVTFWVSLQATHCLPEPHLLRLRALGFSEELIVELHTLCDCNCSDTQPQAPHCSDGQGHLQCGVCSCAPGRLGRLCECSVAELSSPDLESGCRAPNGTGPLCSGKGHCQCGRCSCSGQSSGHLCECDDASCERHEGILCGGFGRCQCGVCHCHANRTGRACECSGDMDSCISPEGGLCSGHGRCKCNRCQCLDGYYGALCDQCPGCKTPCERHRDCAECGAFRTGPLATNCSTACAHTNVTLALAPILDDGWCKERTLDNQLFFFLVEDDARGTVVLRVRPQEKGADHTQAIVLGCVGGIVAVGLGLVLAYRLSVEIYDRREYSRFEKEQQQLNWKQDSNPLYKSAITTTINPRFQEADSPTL

Integrin alpha-V/beta-8 = Integrin alpha-V/beta-8 (Homo sapiens, UniProt P06756+P26012); assay: Antagonist activity at alphavbeta8 integrin receptor (unknown origin) by cell-free ELISA; format: protein-complex assay
Chain of Integrin alpha-V/beta-8 (P06756 31-889 limits assumed): as the sequence (P06756 31-889 limits assumed) above
Chain of Integrin alpha-V/beta-8 (P06756 891-1048 limits assumed): as the sequence (P06756 891-1048 limits assumed) above
Chain of Integrin alpha-V/beta-8 (P26012 43-769 limits assumed): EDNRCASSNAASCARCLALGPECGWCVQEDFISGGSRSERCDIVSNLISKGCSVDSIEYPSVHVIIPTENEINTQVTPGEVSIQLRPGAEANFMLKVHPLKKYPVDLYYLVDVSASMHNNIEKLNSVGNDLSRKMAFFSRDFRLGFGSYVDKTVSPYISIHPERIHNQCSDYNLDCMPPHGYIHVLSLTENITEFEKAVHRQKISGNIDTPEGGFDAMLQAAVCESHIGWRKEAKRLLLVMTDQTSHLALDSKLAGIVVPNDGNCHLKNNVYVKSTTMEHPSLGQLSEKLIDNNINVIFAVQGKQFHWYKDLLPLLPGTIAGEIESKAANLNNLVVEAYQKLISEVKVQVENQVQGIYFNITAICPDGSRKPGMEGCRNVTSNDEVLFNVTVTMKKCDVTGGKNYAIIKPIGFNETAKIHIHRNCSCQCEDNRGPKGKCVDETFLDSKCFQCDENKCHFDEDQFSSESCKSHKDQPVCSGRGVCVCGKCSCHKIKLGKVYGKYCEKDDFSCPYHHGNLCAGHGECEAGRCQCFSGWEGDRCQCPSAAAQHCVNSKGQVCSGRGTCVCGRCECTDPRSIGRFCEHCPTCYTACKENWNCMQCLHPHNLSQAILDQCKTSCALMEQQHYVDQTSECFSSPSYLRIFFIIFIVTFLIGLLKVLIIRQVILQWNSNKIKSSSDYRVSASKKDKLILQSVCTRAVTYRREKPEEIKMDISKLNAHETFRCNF

Integrin alpha2/beta1 = Integrin alpha2/beta1 (Homo sapiens, UniProt P05556+P17301); assay: Antagonist activity at alpha2beta1 integrin receptor (unknown origin) by cell-free ELISA; format: protein-complex assay
Integrin alpha-V/beta-3 = Integrin alpha-V/beta-3 (Homo sapiens, UniProt P05106+P06756); assay: Antagonist activity at alphavbeta3 integrin receptor (unknown origin) by cell-free ELISA; format: protein-complex assay
Integrin alpha-V/beta-1 = Integrin alpha-V/beta-1 (Homo sapiens, UniProt P05556+P06756); assay: Antagonist activity at alphavbeta1 integrin receptor (unknown origin) by cell-free ELISA; format: protein-complex assay
Chain of Integrin alpha-V/beta-1 (P05556 21-798 limits assumed): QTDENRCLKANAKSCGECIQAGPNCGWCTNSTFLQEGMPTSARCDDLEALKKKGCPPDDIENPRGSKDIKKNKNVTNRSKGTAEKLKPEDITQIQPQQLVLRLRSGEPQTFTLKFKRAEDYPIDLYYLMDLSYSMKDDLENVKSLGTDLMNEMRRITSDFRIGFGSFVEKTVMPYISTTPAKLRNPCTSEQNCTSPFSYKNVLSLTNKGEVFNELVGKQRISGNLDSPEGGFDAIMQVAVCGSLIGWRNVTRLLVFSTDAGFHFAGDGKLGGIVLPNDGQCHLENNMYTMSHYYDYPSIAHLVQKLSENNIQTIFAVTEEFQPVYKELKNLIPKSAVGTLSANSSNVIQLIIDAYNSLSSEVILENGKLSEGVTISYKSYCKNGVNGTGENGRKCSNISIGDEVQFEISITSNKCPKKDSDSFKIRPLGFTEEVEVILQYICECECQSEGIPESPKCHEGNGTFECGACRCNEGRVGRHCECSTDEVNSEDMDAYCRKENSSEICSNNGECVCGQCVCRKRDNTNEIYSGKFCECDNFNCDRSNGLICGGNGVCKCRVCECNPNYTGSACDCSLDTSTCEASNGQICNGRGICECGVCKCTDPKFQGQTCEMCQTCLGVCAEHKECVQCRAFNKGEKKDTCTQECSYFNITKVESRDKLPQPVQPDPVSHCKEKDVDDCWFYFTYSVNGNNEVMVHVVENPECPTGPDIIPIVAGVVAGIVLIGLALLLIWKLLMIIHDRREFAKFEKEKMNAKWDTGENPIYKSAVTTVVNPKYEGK
Chain of Integrin alpha-V/beta-1 (P06756 31-889 limits assumed): as the sequence (P06756 31-889 limits assumed) above
Chain of Integrin alpha-V/beta-1 (P06756 891-1048 limits assumed): as the sequence (P06756 891-1048 limits assumed) above

[2] = target: Integrin alpha-IIb/beta-3 (Homo sapiens, UniProt P05106+P08514); assay: Antagonist activity at alpha2bbeta3 integrin receptor (unknown origin) by cell-free ELISA; format: protein-complex assay
Integrin alpha-V/beta-5 [3] = target: T1, Integrin alpha-V/beta-5; assay: Antagonist activity at alphavbeta5 integrin receptor (unknown origin) by cell-based ELISA
[4] = target: Integrin alpha-10/Integrin beta-1 (Homo sapiens, UniProt O75578+P05556); assay: Antagonist activity at alpha10beta1 integrin receptor (unknown origin) by cell-free ELISA; format: protein-complex assay

Chain of Integrin alpha-V/beta-6 (P06756 31-889 limits assumed): as the sequence (P06756 31-889 limits assumed) above
Chain of Integrin alpha-V/beta-6 (P06756 891-1048 limits assumed): as the sequence (P06756 891-1048 limits assumed) above
Chain of Integrin alpha-V/beta-6 (P18564 22-788 limits assumed): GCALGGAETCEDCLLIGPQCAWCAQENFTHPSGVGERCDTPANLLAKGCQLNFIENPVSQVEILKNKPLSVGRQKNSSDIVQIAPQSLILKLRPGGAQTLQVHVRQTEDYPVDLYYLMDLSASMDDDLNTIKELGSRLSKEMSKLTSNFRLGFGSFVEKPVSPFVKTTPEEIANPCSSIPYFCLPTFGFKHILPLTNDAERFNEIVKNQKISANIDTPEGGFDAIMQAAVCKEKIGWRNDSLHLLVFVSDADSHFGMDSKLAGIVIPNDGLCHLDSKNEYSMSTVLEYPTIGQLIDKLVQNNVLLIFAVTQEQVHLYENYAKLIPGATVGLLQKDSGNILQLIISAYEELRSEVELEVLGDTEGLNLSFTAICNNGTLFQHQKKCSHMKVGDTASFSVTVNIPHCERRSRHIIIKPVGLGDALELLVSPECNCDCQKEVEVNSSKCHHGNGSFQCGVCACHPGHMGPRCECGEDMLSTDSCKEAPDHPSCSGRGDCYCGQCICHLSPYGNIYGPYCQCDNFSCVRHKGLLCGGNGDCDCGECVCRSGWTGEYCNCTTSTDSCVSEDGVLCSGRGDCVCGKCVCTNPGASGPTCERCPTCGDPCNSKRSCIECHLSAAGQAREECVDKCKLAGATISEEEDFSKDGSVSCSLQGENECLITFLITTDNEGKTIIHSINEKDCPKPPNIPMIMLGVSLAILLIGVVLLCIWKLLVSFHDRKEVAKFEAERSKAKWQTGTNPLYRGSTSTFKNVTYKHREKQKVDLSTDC

Row | SMILES | pIC50 (Integrin alpha-V/beta-6) | pIC50 (Integrin alpha-5/beta-1) | pIC50 (Integrin alpha-V/beta-5 [1]) | pIC50 (Integrin alpha-4/beta-7) | pIC50 (Integrin alpha-V/beta-8) | pIC50 (Integrin alpha2/beta1) | pIC50 (Integrin alpha-V/beta-3) | pIC50 (Integrin alpha-V/beta-1) | pIC50 [2] | pIC50 (Integrin alpha-V/beta-5 [3]) | pIC50 [4]
1 | COc1ccc(S(=O)(=O)N[C@@H](CNc2nc(C)nc(N3CCC(c4ccc5c(n4)NCCC5)CC3)c2C)C(=O)O)cc1 [GLPG-0187] | 8.85 | 8.11 | 8.70 | < 5.00 | 8.92 | < 5.00 | 8.43 | 8.89 | – | – | –
2 | CC(C)(C)c1cc(Br)cc([C@H](CC(=O)O)NC(=O)CNC(=O)c2cc(O)cc(NC3=NCC(O)CN3)c2)c1 (some centres undefined) | – | – | – | – | 9.70 | < 5.30 | – | 8.74 | < 5.30 | 7.21 | < 5.30
